ChEMBL document CHEMBL5512664, “Emerging and Re-emerging Warheads for Targeted Covalent Inhibitors: An Update” (J Med Chem, 2024)
pIC50, pKi: −log10 of the molar value.

Legend:
Carbonic anhydrase 2 [1] = target: T1, Carbonic anhydrase 2 (Homo sapiens, UniProt P00918); assay: Binding affinity to carbonic anhydrase II (unknown origin) fragment assessed as rate of protein modification by measuring inactivation rate constant (Kinact)
Carbonic anhydrase 2 [2] = target: T1, Carbonic anhydrase 2; assay: Rate of protein modification at carbonic anhydrase II (unknown origin) fragment assessed as inhibition constant
[3] = Toxicity in ip dosed mature male rabbit assessed as death; format: organism-based, Oryctolagus cuniculus; conditions: in vivo
[4] = GSH reactivity in PBS buffer at pH 7.4 assessed as half life; format: ADME
[5] = Chemical stability of the compound in pH 7.4 buffer assessed as half life; format: physicochemical
[6] = GSH reactivity in PBS buffer at pH 8 assessed as second-order reaction rate constants upto 200 uM by DTNB assay; format: ADME; conditions: pH 8, 200 µM
[7] = Cytotoxicity against African green monkey Vero E6 cells; format: toxicity, cell-based, Vero C1008; conditions: chlorocebus sabaeus
[8] = target: T2, Replicase polyprotein 1ab (Severe acute respiratory syndrome coronavirus 2, UniProt P0DTD1); assay: Inhibition of SARS-CoV-2 cysteine protease main protease
[9] = Reactivity of SuTEx assessed as aryl-LG modifications by measuring half life by HLPC analysis; format: physicochemical
Homo sapiens [10] = species on record: Homo sapiens; assay: Binding affinity to wild type Hsp90 (unknown origin) assessed as rate of modification half life
Homo sapiens [11] = species on record: Homo sapiens; assay: Inhibition of wild type Hsp90 (unknown origin) assessed as inactivation rate constant (Kinact)
[12] = target: T3, Chromobox protein homolog 8 (Homo sapiens) (UniProt Q9HC52); assay: Binding affinity to CBX8 (unknown origin) assessed as rate constant of covalent modification (Kinact)
T3 sequence (whole entry): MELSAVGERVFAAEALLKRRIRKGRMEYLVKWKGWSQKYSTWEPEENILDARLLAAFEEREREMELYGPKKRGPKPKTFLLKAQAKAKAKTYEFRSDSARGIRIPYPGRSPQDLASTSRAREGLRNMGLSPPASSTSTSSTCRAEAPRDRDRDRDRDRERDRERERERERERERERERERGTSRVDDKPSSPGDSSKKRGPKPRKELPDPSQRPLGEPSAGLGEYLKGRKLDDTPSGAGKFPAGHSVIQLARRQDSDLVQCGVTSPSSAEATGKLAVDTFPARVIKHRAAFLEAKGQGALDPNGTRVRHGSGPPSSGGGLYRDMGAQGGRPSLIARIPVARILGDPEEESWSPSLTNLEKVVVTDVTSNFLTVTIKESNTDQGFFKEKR

[13] = target: T2, Replicase polyprotein 1ab; assay: Inhibition of SARS-CoV-2 papain-like protease (PLpro) using fluorogenic peptide substrate by fluorescent assay
[14] = target: T2, Replicase polyprotein 1ab; assay: Binding affinity to SARS-CoV-2 cysteine protease-Mpro assessed as inhibition constant
[15] = target: Replicase polyprotein 1ab (Severe acute respiratory syndrome coronavirus 2) (UniProt P0DTD1); assay: Binding affinity to SARS-CoV-2 cysteine protease-Mpro assessed as inactivation rate constant (Kinact)
[16] = target: T4, Tyrosine-protein kinase ABL1 (Homo sapiens, UniProt P00519); assay: Inhibition of recombinant ABL kinase (unknown origin) assessed as inhibition constant
T4 sequence (P00519 whole entry): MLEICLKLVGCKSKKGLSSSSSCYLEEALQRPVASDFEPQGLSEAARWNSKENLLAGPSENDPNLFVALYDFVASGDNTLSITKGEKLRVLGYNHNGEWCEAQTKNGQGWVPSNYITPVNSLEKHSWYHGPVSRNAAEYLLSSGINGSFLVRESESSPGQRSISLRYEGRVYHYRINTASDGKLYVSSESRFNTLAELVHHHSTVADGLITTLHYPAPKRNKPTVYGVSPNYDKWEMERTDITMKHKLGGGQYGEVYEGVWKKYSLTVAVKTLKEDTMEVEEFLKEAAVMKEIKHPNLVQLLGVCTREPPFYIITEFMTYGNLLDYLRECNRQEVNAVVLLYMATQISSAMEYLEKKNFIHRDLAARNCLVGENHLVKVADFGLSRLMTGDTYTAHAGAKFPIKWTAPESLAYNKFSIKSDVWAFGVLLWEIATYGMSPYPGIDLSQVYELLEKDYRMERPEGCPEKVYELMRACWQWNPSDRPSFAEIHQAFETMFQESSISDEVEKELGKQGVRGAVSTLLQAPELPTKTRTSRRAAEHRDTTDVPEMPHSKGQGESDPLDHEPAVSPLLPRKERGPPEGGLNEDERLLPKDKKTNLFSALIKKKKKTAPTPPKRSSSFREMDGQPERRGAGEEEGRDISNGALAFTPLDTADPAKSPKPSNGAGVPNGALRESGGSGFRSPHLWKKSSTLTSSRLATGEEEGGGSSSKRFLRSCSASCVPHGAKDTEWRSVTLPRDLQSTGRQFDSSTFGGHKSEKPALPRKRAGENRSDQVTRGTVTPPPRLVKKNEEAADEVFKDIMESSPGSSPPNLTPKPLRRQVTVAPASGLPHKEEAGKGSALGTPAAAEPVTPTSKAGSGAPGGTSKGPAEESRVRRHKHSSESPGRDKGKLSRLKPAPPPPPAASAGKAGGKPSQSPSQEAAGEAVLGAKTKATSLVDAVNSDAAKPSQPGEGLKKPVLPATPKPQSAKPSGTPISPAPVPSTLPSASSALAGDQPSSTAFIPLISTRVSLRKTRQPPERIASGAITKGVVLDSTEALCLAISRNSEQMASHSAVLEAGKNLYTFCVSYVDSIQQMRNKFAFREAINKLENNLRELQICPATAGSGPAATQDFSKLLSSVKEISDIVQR

[17] = target: T4, Tyrosine-protein kinase ABL1; assay: Inhibition of recombinant ABL kinase (unknown origin) assessed as inactivation rate constant (Kinact)
[18] = target: T4, Tyrosine-protein kinase ABL1; assay: Inhibition of wild type N-terminal His tagged ABL kinase (unknown origin) using fluorescence-labelled substrate by off-chip mobility shift assay
[19] = target: T5, Tyrosine-protein kinase BTK (Homo sapiens, UniProt Q06187); assay: Binding affinity to BTK (unknown origin) assessed as inhibition constant
T5 sequence (Q06187 whole entry): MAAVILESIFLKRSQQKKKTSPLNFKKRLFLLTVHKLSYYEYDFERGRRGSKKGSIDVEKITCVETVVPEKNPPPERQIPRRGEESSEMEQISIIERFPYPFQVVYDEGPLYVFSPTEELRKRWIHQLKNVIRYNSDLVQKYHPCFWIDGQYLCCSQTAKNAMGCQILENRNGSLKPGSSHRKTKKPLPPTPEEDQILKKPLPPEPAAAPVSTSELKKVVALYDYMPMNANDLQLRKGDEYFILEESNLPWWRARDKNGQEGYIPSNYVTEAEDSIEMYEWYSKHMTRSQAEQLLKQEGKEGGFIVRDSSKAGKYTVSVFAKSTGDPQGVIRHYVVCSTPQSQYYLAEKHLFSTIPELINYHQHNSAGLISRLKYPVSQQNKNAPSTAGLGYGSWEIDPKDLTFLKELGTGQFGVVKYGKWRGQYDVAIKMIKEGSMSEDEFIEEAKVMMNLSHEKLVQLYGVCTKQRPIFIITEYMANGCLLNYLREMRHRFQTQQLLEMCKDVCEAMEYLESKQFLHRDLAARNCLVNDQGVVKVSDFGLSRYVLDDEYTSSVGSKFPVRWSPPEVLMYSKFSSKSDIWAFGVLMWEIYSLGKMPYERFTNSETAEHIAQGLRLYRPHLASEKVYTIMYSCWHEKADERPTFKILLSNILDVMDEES

[20] = Thiol reactivity of compound assessed as (Kinact/Ki) rate constant ratio; format: ADME
[21] = target: T5, Tyrosine-protein kinase BTK
Description: Binding affinity to BTK (unknown origin) assessed as inactivation rate constant (Kinact)

[22] = Reactivity rate at cyclic sulfonamide assessed as rate constant by CSA sulfenic-acid model; format: physicochemical
[23] = Reactivity of SuTEx assessed as aryl-AG modifications by measuring half life by HLPC analysis; format: physicochemical
[24] = target: T5, Tyrosine-protein kinase BTK; conditions: A-431, dose 1.0 µM
[25] = Cysteine-reactive in peptide assessed as half life using fluorogenic monochlorobimane/zinc complex by measuring fluorescence intensity; format: ADME; conditions: cysteine-containing peptide

For `CC(NC(=O)c1cccc(S(=O)(=O)F)c1)c1cccc(S(N)(=O)=O)c1` (stereo not drawn), the Kinact (Carbonic anhydrase 2 [1]) was 0.24 10^-5/s and the pKi (Carbonic anhydrase 2 [2]) was 4.28.
For `CC(NS(=O)(=O)c1cccc(S(=O)(=O)F)c1)c1cccc(S(N)(=O)=O)c1` (stereo not drawn), the Kinact (Carbonic anhydrase 2 [1]) was 3.9 10^-5/s and the pKi (Carbonic anhydrase 2 [2]) was 4.92.
Compound `O=C(NCCCCCCCCNC(=O)C(Cl)Cl)C(Cl)Cl` has an LD50 [3] of 10000 mg/kg.
For `CC#CC1=Nc2ccccc2C(C)(C)O1`, the half-life [4] was 1.37 h and the half-life [5] was over 167 h.
With `CN(C)S(=O)(=O)OCC(=O)NCc1ccccc1` the K [6] was 0.012 M⁻¹ s⁻¹.
`C[C@@H](NC(=O)[C@H](c1cccnc1)N(C(=O)C(Br)(Br)Br)c1ccc(-c2ccccc2)cc1)c1ccccc1` showed a CC50 [7] of 5.48 µM and a pIC50 [8] of 7.10.
Compound `O=C(CCl)NCc1ccccc1` has a K [6] of 0.08 M⁻¹ s⁻¹.
`O=S(=O)(c1ccc(F)cc1)n1cnc(-c2ccc(Br)cc2)n1` gave a half-life [9] of 6.6 min.
In the case of `Nc1ncnc2c1nc(Sc1cc3c(cc1I)OCO3)n2C[C@@H]1CCCN(Cc2cccc(S(=O)(=O)F)c2)C1`, the T1/2 (Homo sapiens [10]) was 3.33 h and the Kinact (Homo sapiens [11]) was 6.67 10^-5/s.
`O=C(COS(=O)(=O)Nc1ccc(Br)cc1)NCc1ccccc1` gave a K [6] of 0.003 M⁻¹ s⁻¹.
With `O=S(=O)(c1ccc(F)cc1)n1cnc(-c2ccc(C(F)(F)F)cc2)n1` the half-life [9] was 3.2 min and the K [12] was 2.9 10^-3/M/s.
With `COc1cc(OC)cc(C(=O)C23CC2C3)c1` (stereo not drawn) the half-life [4] was 32.7 h.
With `C=CCSc1nc2sc3c(c2c(=O)n1CC)CCc1ccccc1-3` the half-life [4] was 0.683 h and the pIC50 [13] was 6.10.
In the case of `NS(=O)(=O)c1ccc(CCNC(=O)c2cccc(S(=O)(=O)F)c2)cc1`, the Kinact (Carbonic anhydrase 2 [1]) was 0.51 10^-5/s and the pKi (Carbonic anhydrase 2 [2]) was over 5.30.
For `CN(C(=O)C12CC1C2)c1ccccc1` (stereo not drawn), the half-life [4] was 32.7 h.
Compound `NC(=O)C(F)Br` (stereo not drawn) has a half-life [4] of 0.15 h.
For `O=C(NCCc1cccc(F)c1)[C@H](c1cncnc1)N(C(=O)[C@H](F)Cl)c1ccc(S(F)(F)(F)(F)F)cc1`, the pKi [14] was 4.19 and the Kinact [15] was 4.3 10^-3/s.
With `NS(=O)(=O)c1ccc(CCNS(=O)(=O)c2ccc(S(=O)(=O)F)cc2)cc1` the Kinact (Carbonic anhydrase 2 [1]) was 2.1 10^-5/s and the pKi (Carbonic anhydrase 2 [2]) was over 5.30.
In the case of `C#Cc1cc(OC)c(-c2ccc3nc(NC(=O)NCO)sc3c2)cc1C=O`, the pKi [16] was 7.89 and the Kinact [17] was 1.27 10^-3/s.
`COc1cc(S(=O)(=O)F)ccc1-c1c[nH]c2ncc(-c3cncc(C(=O)N(C)C)c3)cc12` gave a pIC50 [18] of 7.14.
For `CC(C)(C)OC(=O)/C=C/C(=O)N1CCC[C@@H](n2nc(-c3ccc(Oc4ccccc4)cc3)c3c(N)ncnc32)C1`, the pKi [19] was 6.66, the kinact/KI [20] was 35000 M⁻¹ s⁻¹ and the Kinact [21] was 7.62 10^-3/s.
With `C#CCCCN1c2ccccc2C(=O)CS1(=O)=O` the K [22] was 1700 M⁻¹ s⁻¹.
Compound `COc1ccc(-c2ncn(S(=O)(=O)c3cccnc3)n2)cc1` has a half-life [23] of 1.6 min.
For `Nc1ncnc2c1nc(Sc1cc3c(cc1I)OCO3)n2C[C@H]1CCCN(Cc2cccc(S(=O)(=O)F)c2)C1`, the T1/2 (Homo sapiens [10]) was 0.0833 h and the Kinact (Homo sapiens [11]) was 2.17 10^-3/s.
For `CCSc1nc2sc3c(c2c(=O)n1CC)CCc1ccccc1-3`, the half-life [4] was 0.683 h and the pIC50 [13] was 5.31.
For `CC(NC(=O)c1ccc(S(=O)(=O)F)cc1)c1cccc(S(N)(=O)=O)c1` (stereo not drawn), the Kinact (Carbonic anhydrase 2 [1]) was 0.45 10^-5/s and the pKi (Carbonic anhydrase 2 [2]) was 4.48.
In the case of `C#CCOCCOCCOc1cccc(N2CCN(C(=O)C(F)(F)Br)CC2)c1`, the half-life [4] was 33.4 h.
With `C[C@@H](NC(=O)[C@H](c1cccnc1)N(C(=O)C(Cl)Cl)c1ccc(-c2ccccc2)cc1)c1ccccc1` the CC50 [7] was over 100 µM.
With `C#Cc1cccc(Oc2ccc(-c3nn(CCc4ccccc4N(C)C(=O)C45CC4C5)c4ncnc(N)c34)cc2)c1` (stereo not drawn) the V0 [24] was 9.7 10^-5/s and the half-life [4] was 32.7 h.
With `NC(=O)CCl` the half-life [25] was 2.4 min and the half-life [4] was under 1.67 h.
Compound `CC#CC1=Nc2ccccc2C(C)(C)N1` has a half-life [4] of 0.025 h and a half-life [5] of over 167 h.
With `C#CCOCCOCCOc1cccc(N2CCN(C(=O)CF)CC2)c1` the half-life [4] was over 167 h.
Work on `O=S(=O)(c1ccccc1)C12CC1C2` (stereo not drawn) yielded a half-life [4] of 11.8 h.
With `NC(=O)C(Cl)Br` (stereo not drawn) the half-life [4] was under 1.67 h.
